Earlier results as cited in patent US12655168B2, “Isolation of steviol glycosides” (DSM IP ASSETS B.V., priority 2019, dated 2026).
Blank lines part the entries; values can stand above or below the compound they belong to.

Assays:
[1] = relative to sucrose
[2] = new hemihydrate crystal form; obtained after heating and cooling a 0.06% reb B solution to room temperature
[3] = Type II diabetics
[4] = mildly hypertensive patients

Compound: C=C1C[C@@]23CC[C@H]4[C@@](C)(CCC[C@@]4(C)C(=O)O[C@@H]4O[C@H](CO)[C@@H](O)[C@H](O)[C@H]4O[C@@H]4O[C@H](CO)[C@@H](O)[C@H](O)[C@H]4O)[C@@H]2CC[C@]1(O[C@@H]1O[C@H](CO)[C@@H](O)[C@H](O[C@@H]2O[C@H](CO)[C@@H](O)[C@H](O)[C@H]2O)[C@H]1O[C@@H]1O[C@H](CO)[C@@H](O)[C@H](O)[C@H]1O)C3 [rebaudioside D]
times sweeter than sucrose [1]: about 200 times

solubility in water [2]: 50 ppm
Compound: rebaudioside B

Compound: C=C1C[C@@]23CC[C@H]4[C@@](C)(CCC[C@@]4(C)C(=O)O[C@@H]4O[C@H](CO)[C@@H](O)[C@H](O)[C@H]4O)[C@@H]2CC[C@]1(O[C@@H]1O[C@H](CO)[C@@H](O)[C@H](O)[C@H]1O[C@@H]1O[C@H](CO)[C@@H](O)[C@H](O)[C@H]1O)C3 [Stevioside]
effect on blood glucose levels [3]: reduce blood glucose levels
effect on blood pressure [4]: reduce blood pressure
